Data as given in paper PMC11844072, “Novel 5,6-dichlorobenzimidazole derivatives as dual BRAFWT and BRAFV600E inhibitors: design, synthesis, anti-cancer activity and molecular dynamics simulations” (BMC Chemistry, 2025).

Legend:
NCI/ADR-RES = assay: NCI 60 single concentration growth inhibition; assay type: cell-based, human; settings: Homo sapiens, Ovarian cancer, read-out: GI%
In short: (§1)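 Read-out is SRB absorbance at 515 nm after TCA fixation (10% for adherent lines, 16% for suspension lines). Drugs were applied for 48 h following a 24 h plating period. Growth percentages came from time-zero, control and treated absorbances.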

SNB-19 = assay: NCI 60 single concentration growth inhibition; assay type: cell-based, human; settings: Homo sapiens, SNB-19, CNS cancer, read-out: GI%
In short: as §1

NCI-H460 = assay: NCI 60 single concentration growth inhibition; assay type: cell-based, human; settings: Homo sapiens, NCI-H460, Non-small cell lung cancer, read-out: GI%
In short: as §1

SW-620 = assay: NCI 60 single concentration growth inhibition; assay type: cell-based, human; settings: Homo sapiens, SW-620, Colon cancer, read-out: GI%
In short: as §1

COLO 205 [1] = assay: NCI 60 single concentration growth inhibition; assay type: cell-based, human; settings: Homo sapiens, COLO 205, Colon cancer, read-out: GI%
In short: as §1

K-562 = assay: NCI 60 single concentration growth inhibition; assay type: cell-based, human; settings: Homo sapiens, K562, K-562, Leukemia, read-out: GI%
In short: as §1

HOP-92 = assay: NCI 60 single concentration growth inhibition; assay type: cell-based, human; settings: Homo sapiens, HOP-92, Non-small cell lung cancer, read-out: GI%
In short: as §1

HCC-2998 = assay: NCI 60 single concentration growth inhibition; assay type: cell-based, human; settings: Homo sapiens, HCC-2998, Colon cancer, read-out: GI%
In short: as §1

NCI-H522 = assay: NCI 5-dose assay; assay type: cell-based; settings: Homo sapiens; NCI-H522, Non-small cell lung cancer
Description: (§2) The synthesized dichlorobenzimidazoles 10a–p were assayed for their influence on divers cancer cell lines according to the method presented in the Additional file A.
(§3) 5. Screening of cytotoxic activity against a panel of sixty human tumor cell lines
(§4) The selected compounds by NCI were evaluated for their anticancer activity in a two-stage process. First, these compounds were screened against the full NCI 60 cell lines panel at a single high dose of 10 µM. Then, the output from the single dose screen is reported as a mean graph. […]
(§5) at five different minimal concentrations.
(§6) Assay protocol. The human tumor cell lines of the cancer screening panel are grown in RPMI 1640 medium containing 5% fetal bovine serum and 2 mM L-glutamine. For a typical screening experiment, cells are inoculated into 96 well microtiter plates in 100 µL at plating densities ranging from 5000 to 40,000 cells/well depending on the doubling time of individual cell lines. After cell inoculation, the microtiter plates are incubated at 37 °C, 5% CO 2, 95% air and 100% relative humidity for 24 h prior to addition of the experimental drugs.
(§7) After 24 h, two plates of each cell line are fixed in situ with TCA, to represent a measurement of the cell population for each cell line at the time of drug addition (Tz). The experimental drugs are solubilized in dimethyl sulfoxide at 400-fold the desired final maximum test concentration and stored frozen prior to use. At the time of drug addition, an aliquot of frozen concentrate is thawed and diluted to twice the desired final maximum test concentration with complete medium containing 50 µg/mL gentamicin. Additional four, 10-fold or ½ log serial dilutions are made to provide a total of five drug concentrations plus control.
(§8) Aliquots of […] of these different drug dilutions are added to the appropriate microtiter wells already containing […] of medium, resulting in the required final drug concentrations.
(§9) Following drug addition, the plates are incubated for an additional 48 h at 37 °C, 5% CO 2, 95% air, and 100% relative humidity. For adherent cells, the assay is terminated by the addition of cold TCA.
(§10) Cells are fixed in situ by the gentle addition of 50 µL of cold 50% (w/v) TCA (final concentration, 10% TCA) and incubated for 60 min at 4 °C. The supernatant is discarded, and the plates are washed five times with tap water and air dried. Sulforhodamine B (SRB) solution ([…]) at 0.4% (w/v) in 1% acetic acid is added to each well, and plates are incubated for 10 min at room temperature. After staining, unbound dye is removed by washing five times with 1% acetic acid and the plates are air dried. Bound stain is subsequently solubilized with 10 mM trizma base, and the absorbance is read on an automated plate reader at a wavelength of 515 nm. For suspension cells, the methodology is […]
(§11) the same except that the assay is terminated by fixing settled cells at the bottom of the wells by gently adding 50 µl of 80% TCA (final concentration, 16% TCA). Using the seven absorbance measurements [time zero, (Tz), control growth, (C), and test growth in the presence of drug at the five concentration levels (Ti)], the percentage growth is calculated at each of the drug concentrations […]
(§12) Percentage growth inhibition is calculated as: [(Ti Tz)/(C–Tz)] x 100 for concentrations for which Ti>/=Tz and [(Ti-Tz)/Tz] x 100 for concentrations for which Ti < Tz.
(§13) Three dose response parameters are calculated for each experimental agent. Growth […]
(§14) concentration resulting in a 50% reduction in the net protein increase (as measured by SRB staining) in control cells during the drug incubation. The drug concentration resulting in total growth inhibition (TGI) is calculated from Ti = Tz. […]
(§15) reduction in the measured protein at the end of the drug treatment as compared to that at the beginning) indicating a net loss of cells following treatment is calculated from [(Ti–Tz)/Tz] x 100 =
(§16) _50. Values are calculated for each of these three parameters if the level of activity is reached; […]

COLO 205 [2] = assay: NCI 5-dose assay; assay type: cell-based; settings: Homo sapiens; COLO 205, Colon cancer
Description: as §2, §3, §4, §5, §6, §7, §8, §9, §10, §11, §12, §13, §14, §15, §16

CCRF-CEM = assay: NCI 5-dose assay; assay type: cell-based; settings: Homo sapiens, Leukemia
Description: as §2, §3, §4, §5, §6, §7, §8, §9, §10, §11, §12, §13, §14, §15, §16

SK-MEL-28 = assay: NCI 5-dose assay; assay type: cell-based; settings: Homo sapiens; SK-MEL-28, Melanoma
Description: as §2, §3, §4, §5, §6, §7, §8, §9, §10, §11, §12, §13, §14, §15, §16

SF-268 = assay: NCI 5-dose assay; assay type: cell-based; settings: Homo sapiens; SF-268, CNS cancer
Description: as §2, §3, §4, §5, §6, §7, §8, §9, §10, §11, §12, §13, §14, §15, §16

MDA-MB-231/ATCC = assay: NCI 5-dose assay; assay type: cell-based; settings: Homo sapiens, Breast cancer
Description: as §2, §3, §4, §5, §6, §7, §8, §9, §10, §11, §12, §13, §14, §15, §16

SNB-75 = assay: NCI 60 single concentration growth inhibition; assay type: cell-based, human; settings: SNB-75, CNS cancer, 10 μM
In short: as §1

NCI-H322M = assay: NCI 60 single concentration growth inhibition; assay type: cell-based, human; settings: Non-small cell lung cancer, 10 μM
In short: as §1

IGROV1 = assay: NCI 60 single concentration growth inhibition; assay type: cell-based, human; settings: IGROV1, Ovarian cancer, 10 μM
In short: as §1

MALME-3M = assay: NCI 60 single concentration growth inhibition; assay type: cell-based, human; settings: Melanoma, 10 μM
In short: as §1

UO-31 = assay: NCI 60 single concentration growth inhibition; assay type: cell-based, human; settings: UO-31, Renal cancer, 10 μM
In short: as §1

`COC(=O)COc1ccc(C=NNC(=O)Cn2c(-c3ccc(OC)cc3)nc3cc(Cl)c(Cl)cc32)cc1` [Compound 10h, Methyl-2-(4-((2-(2-(5,6-dichloro-2-(4-methoxyphenyl)-1H-benzo[d]imidazol-1-yl)acetyl)hydrazono)methyl)phenoxy)acetate] was tested. Which inhibition at 10 µM (NCI/ADR-RES) did it give?
Its inhibition at 10 µM is < 5%.

And the inhibition at 10 µM (SNB-19)?
Its inhibition at 10 µM is 8.19%.

And the inhibition at 10 µM (NCI-H460)?
The inhibition at 10 µM was < 5%.

And the inhibition at 10 µM (SW-620)?
Its inhibition at 10 µM is < 5%.

What about the inhibition at 10 µM (COLO 205 [1]) of the same molecule?
The inhibition at 10 µM was 51.5%.

What about the inhibition at 10 µM (K-562) of the same molecule?
The inhibition at 10 µM was 31.4%.

What about the inhibition at 10 µM (HOP-92) of the same molecule?
The inhibition at 10 µM was 7.02%.

What about the inhibition at 10 µM (HCC-2998) of the same molecule?
Its inhibition at 10 µM is 142%.

What about the GI50 (NCI-H522) of the same molecule?
Its GI50 is 14.7 µM.

And the GI50 (COLO 205 [2])?
The GI50 was 16.5 µM.

And the GI50 (CCRF-CEM)?
The GI50 was 4.78 µM.

What about the GI50 (SK-MEL-28) of the same molecule?
Its GI50 is 11.7 µM.

And the GI50 (SF-268)?
Its GI50 is 10.1 µM.

What about the GI50 (MDA-MB-231/ATCC) of the same molecule?
The GI50 was 6.66 µM.

Which results are given for `COC(=O)COc1cc(C=NNC(=O)Cn2c(-c3ccc(OC)cc3)nc3cc(Cl)c(Cl)cc32)ccc1OC` [Compound 10o, Methyl-2-(5-((2-(2-(5,6-dichloro-2-(4-methoxyphenyl)-1H-benzo[d]imidazol-1-yl)acetyl)hydrazono)methyl)-2-methoxyphenoxy)acetate]?
inhibition at 10 µM (NCI/ADR-RES): 11.1%; inhibition at 10 µM (SNB-19): < 5%; inhibition at 10 µM (NCI-H460): < 5%; GI% (SNB-75): 27.54%; inhibition at 10 µM (SW-620): < 5%; GI% (NCI-H322M): 11.69%; inhibition at 10 µM (COLO 205 [1]): < 5%; inhibition at 10 µM (K-562): 23.6%; inhibition at 10 µM (HOP-92): 29.1%; GI% (IGROV1): 97.59%; inhibition at 10 µM (HCC-2998): 83.8%; GI% (MALME-3M): – (GI% < 5%); GI% (UO-31): 18.26%; GI50 (NCI-H522): > 100 µM; GI50 (COLO 205 [2]): > 100 µM; GI50 (CCRF-CEM): > 100 µM; GI50 (SK-MEL-28): > 100 µM; GI50 (SF-268): > 100 µM; GI50 (MDA-MB-231/ATCC): 16.1 µM

Which inhibition at 10 µM (NCI/ADR-RES) does the source give for `COC(=O)COc1ccc(C=NNC(=O)Cn2c(-c3ccc(OC)cc3)nc3cc(Cl)c(Cl)cc32)cc1OC` [Compound 10p, Methyl-2-(4-((2-(2-(5,6-dichloro-2-(4-methoxyphenyl)-1H-benzo[d]imidazol-1-yl)acetyl)hydrazono)methyl)-2-methoxyphenoxy)acetate] here?
The inhibition at 10 µM was 5.42%.

What about the inhibition at 10 µM (SNB-19) of the same molecule?
Its inhibition at 10 µM is < 5%.

What about the inhibition at 10 µM (NCI-H460) of the same molecule?
Its inhibition at 10 µM is < 5%.

What about the inhibition at 10 µM (SW-620) of the same molecule?
The inhibition at 10 µM was < 5%.

And the inhibition at 10 µM (COLO 205 [1])?
The inhibition at 10 µM was 34.9%.

And the inhibition at 10 µM (K-562)?
The inhibition at 10 µM was 12.3%.

What about the inhibition at 10 µM (HOP-92) of the same molecule?
The inhibition at 10 µM was < 5%.

And the inhibition at 10 µM (HCC-2998)?
The inhibition at 10 µM was 86.1%.

What about the GI50 (NCI-H522) of the same molecule?
The GI50 was > 72.5 µM.

What about the GI50 (COLO 205 [2]) of the same molecule?
The GI50 was 18.2 µM.

And the GI50 (CCRF-CEM)?
The GI50 was > 72.5 µM.

And the GI50 (SK-MEL-28)?
Its GI50 is > 72.5 µM.

What about the GI50 (SF-268) of the same molecule?
The GI50 was 32.4 µM.

What about the GI50 (MDA-MB-231/ATCC) of the same molecule?
The GI50 was 13.8 µM.
